Assays:
Assay type in all cases: functional
Rattus norvegicus [1] = assay: The compound was tested for hyperexcitability in rat at a dose of 80 mg/Kg
Rattus norvegicus [2] = assay: The compound was tested for decreasing motor activity in rat. at a dose of 5 mg/Kg
Mus musculus [3] = species: Mus musculus; assay: The compound was tested for analgesic activity using writhing (W) test in mouse
Mus musculus [4] = species: Mus musculus; assay: The compound was tested for activity to decrease fighting in mouse
Rattus norvegicus [5] = assay: The compound was tested for methamphetamine antagonism in rat at a dose of 1 mg/Kg
Rattus norvegicus [6] = assay: The compound was tested for serotonin antagonism in rat at a dose of 1 mg/Kg
Rattus norvegicus [7] = species: Rattus norvegicus; assay: The compound was tested for analgesic activity using (RTF) tail-flick test in rat
Rattus norvegicus [8] = assay: The compound was tested for decreasing motor activity in rat at a dose of 2 mg/Kg
Rattus norvegicus [9] = assay: The compound was tested for hyperexcitability in rat at a dose of 5 mg/Kg
Rattus norvegicus [10] = assay: The compound was tested for serotonin antagonism in rat at a dose of 2 mg/Kg
Rattus norvegicus [11] = assay: The compound was tested for hyperexcitability in rat at a dose of 20 mg/Kg
Rattus norvegicus [12] = assay: The compound was tested for methamphetamine antagonism in rat at a dose of 2 mg/Kg

SMILES: CC(CCCc1ccc(F)cc1)c1cc(O)c2c(c1)OC(C)(C)C1=C2CN(CC(=O)NC(N)=O)CC1 (configuration not stated)
- Possible response (Rattus norvegicus [1]): 100%
- Decrease in activity (Rattus norvegicus [2]): 55%
- ED50 (Mus musculus [3]): 0.7 mg/kg
- ED50 (Mus musculus [4]): 2 mg/kg
- Decrease in activity (Rattus norvegicus [5]): 64%
- Decrease in activity (Rattus norvegicus [6]): 50%
- ED50 (Rattus norvegicus [7]): 1.6 mg/kg
- Decrease in activity (Rattus norvegicus [8]): 88%
- Possible response (Rattus norvegicus [9]): 46%
- Decrease in activity (Rattus norvegicus [10]): 72%
- Possible response (Rattus norvegicus [11]): 90%
- Decrease in activity (Rattus norvegicus [12]): 75%

From ChEMBL document CHEMBL1122334, “New azacannabinoids highly active in the central nervous system” (1983)
